Test results as given in patent US11260050B2, “Combination of cotinine plus antioxidant for treatment-resistant depression and correction of astrocytes functional deficit induced by depression and other neuropathological” (UNIVERSIDAD SAN SEBASTIAN, priority 2017, dated 2022).

Key:
[1] = system: mice subjected to restraint stress; assay: Elevated plus maze after restraint stress (Example 1, Experiment 1); format: in vivo, C57BL/6 mice; conditions: RS mice, post-treatment with cotinine
Method: Mice were treated immediately after the 21 days of immobilization stress (6 h/day) until euthanasia. Mice (n=5-8/condition) received daily treatments with 1. PBS (phosphate buffer saline, pH 7.4) via intranasal (2×12 μl/nostril), 2. PBS via gavage (50 μl); 3. Cotinine dissolved in PBS via oral (gavage, (0.5 mg/kg; Cot 0.5); 4. Cotinine dissolved in PBS via intranasal (Cot IN, 10 mg/ml, 2×12 μl/nostril).
To induce chronic stress, the restraint stress paradigm was used as previously described. Mice are immobilized in 50 ml falcon plastic tubes that were attached to mouse cages. The immobilization proceeded during 6 h from 9:00 AM to 3:00 PM in absence of treatments. Tubes have holes in the opposite side of the tube to allow the animal breathing and urination. Mice were almost completely immobilized for 6 h/day for 21 days after which they were permitted freely to move, eat and drink.
Anxiety was assessed through the elevated plus maze (EPM). EPM is considered one of the best choices to test anxiolytic effects of drugs. This test is based on the observation that most of the time higher anxiety levels will diminish the time exploring new environments as a form to avoid danger (open arms).
To determine the level of anxiety, mice were tested in the EPM. […]

GFAP = assay: Immunohistochemical analysis of GFAP expression, hippocampus and frontal cortex (Example 1); format: in vivo, C57BL/6 mice; conditions: RS mice treated with cotinine
From the text: After treatments, the hippocampus and frontal cortex were investigated for changes in neuronal and glia cells architecture by Luxol blue staining, and cresyl violet staining. Also, the expression levels of the astrocyte marker GFAP in cells of the same areas by immunohistochemistry.
After the behavioral testing, mice were euthanized and brains were removed and dissected. Each brain was divided into two parts, left and right hemispheres. The frontal cortex and hippocampus were dissected from left hemisphere on ice and quickly frozen for subsequent analyses at −80° C. The right hemispheres were post-fixed in 10% buffered formalin (pH7.4) for 48 hours, included in paraffin, sliced in 4 μm sections and mounted in slides for histological and immunohistochemical analysis. […]
Three digital images of the slides immunostained for GFAP immunoreactivity (IR) were obtained of the hippocampus and frontal cortex using a digital camera attached to an inverted microscope at 40× magnification (Micrometrics, MilesCo Scientific, Princeton, Minn., USA) operated by software Micrometrics (Micrometrics SE Premium). To quantitate GFAP immunoreactivity the area of immunostaining was delimited and quantitated using the ImageJ software, provided by the National Institute of Health (NIH, Bethesda, […]., USA).

[2] = system: mice subjected to fear conditioning; assay: Contextual fear retention and extinction (Example 1, Experiment 3); format: in vivo, C57BL/6 mice
From the text: Between trials, the chamber was sanitized with 70% ethanol and dried.

restrained mice = assay: Open field test, oral co-treatment during restraint stress (Example 3); format: in vivo, C57BL/6J mice; conditions: oral cotinine 5 mg/kg, KO 143 mg/kg or both, 25 min
Method: Mice after acclimatization and one week of handling were randomly divided into five groups (n=8/condition) and orally treated as follow: 1) control non-restrained mice treated with vehicle (PBS, pH 7.4); 2) restrained mice treated with vehicle; 3), restrained mice treated with a cotinine solution (5 mg/kg in PBS, pH 7.4) via gavage; 4) restrained mice treated with KO (143 mg/kg); 5) restrained mice treated with cotinine plus KO solution. Mice were started with treatments, the first day of restraint and continuously until euthanasia. Treatments were administered at the same time of the day, 30 min before restraint. After 21 days into treatments, mice were behaviorally tested (FIG. 17).
Restraint stress (RS) was used as a model of chronic stress-induced depressive-like behavior and cognitive impairment. We used this task because is a reliable method that mimics the effects of chronic stress without causing physical pain or unnecessary discomfort to the mice. Mice were gently introduced into a 50-ml conical transparent plastic tubes (Corning Inc.). […]
The open field (OF) test was conducted as previously described with minor modifications to identify changes in locomotor activity in response to stress and/or drug treatments. […] Total distance traveled, and time spent in the center zone were measured under moderate lighting using the video tracking software (ANY-Maze, Stoelting Co.).

SMILES: CN1C(=O)CC[C@H]1c1cccnc1 [Cotinine, (5S)-1-methyl-5-(3-pyridyl) pyrrolidin-2-one]
- locomotor activity (distance traveled) in the EPM ([1]; Tukey p<0.01): reduced significantly the locomotor activity in the RS mice
- rearing activity in the elevated plus maze ([1]; vs Ctrl non-restrained mice): did not show differences with Ctrl non-restrained mice
- level of GFAP+ cells in the hippocampus and cortex (qualitative analysis) (GFAP): recovery of this expression was observed
- freezing in the contextual retention test (consolidation of fear memory) ([2]; IN treatment started 2 h after FC, test 24 h after FC): levels of freezing similar to control mice
- freezing behavior during contextual fear extinction trials ([2]; daily IN treatment, daily 3 min re-exposure): significant enhancement of memory extinction on day 2 and 3
- day of maximal decrease in freezing during extinction ([2]; daily IN treatment, control mice day 5): 3 days
- locomotor activity in the open field (distance traveled, speed) (restrained mice): no significant changes in locomotor activity
